Consider 16 compounds from patent publication US11098041B2 (Merck Patent GmbH, priority 2014, dated 2021).

One test concerns the target full-length human BTK (Homo sapiens (Human), UniProt Q06187). The test is described as follows: Assay A: microfluidic off-chip mobility shift assay against BTK enzyme. It counts as biochemical.
Test [1] relates to anti-IgM-induced expression of CD69 on CD19 positive cells (B cells) in human PBMCs. The test can be described thus: Assay C: PBMC IC50 assay (anti-IgM-induced CD69 expression). The format is cell-based. As to conditions: anti-IgM stimulation. The procedure, abridged:
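Freshly isolated human PBMCs (2.5×10^5/well) pretreated 1 h with compound, then stimulated overnight (~16-18 h) with goat F(ab′)2 anti-human IgM. CD69 on CD19+ B cells measured by flow cytometry; IC50 from percentage CD69+ B cells versus concentration.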

Test [2] has as its system IL-1β release by human THP-1 cells. The test is described as follows: Assay D: THP-1 cells IL-1β release ELISA assay. As to conditions: PMA and LPS, BzATP stimulation. It counts as cell-based. As for the experimental part:
Assay D: THP-1 Cells IL-1β release ELISA Assay
The assay measures IL-1β release by human THP-1 cells after treatment with PMA and LPS in response to BzATP stimulation in order to evaluate the potency of P2X7 inhibitors. THP-1 cells (2×10^5 cells/mL) in culture medium (RPMI1640 (Gibco, #22400-089)+10% HI-FBS (Gibco, #10082-147)+1% L-Glutamine (Gibco, #25030)+1% Pen/Strep (Gibco, #15140) complemented with 0.5 μM PMA (Sigma, #P8139) were incubated for 30 min at 37° C. At the end of the incubation time, the cells were titrated and washed gently in PBS. The cells were then re-suspended to a density of 1.5×10^5 cell/mL in culture medium complemented with 10 ng/mL LPS (Sigma, #L5293). The cell suspension was dispensed (40 μL/well) into a Corning 384-well plate. After 4 hr of incubation at 37° C., the cells were treated with 20 μL of test compounds at various concentrations. The plate was incubated for 30 min at 37° C. and then the cells were treated with 20 μL of 3.2 mM BzATP (Sigma. #B6396) (0.8 mM final concentration). The plate was incubated for an additional 30 min at 37° C., and then subjected to centrifugation (4 min, 1000 rpm). Supernatant (60 μL) from each well was transferred to a 384-matrix PP plate. The plate was then stored at 4° C. (overnight) or −20° C. for longer term storage. The next day, the […] were measured using a human […] ELISA Kit (R & D systems, catalog #DY201) and read using a SpectraMax Plus 384 Microplate Reader.

Test [3] has as its target BTK C481S (His-TEV-hsBTK(328-659)(C481S)) (Homo sapiens (Human), UniProt Q06187, C481S). The test is described as follows: Assay B: microfluidic off-chip mobility shift assay against BTK C481S enzyme. The format is biochemical. The conditions noted are these: BTK C481S mutant. The method in brief:
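Substrate-to-phosphopeptide conversion quantified by microfluidic mobility shift with laser-induced fluorescence; IC50 and efficacy from log[inhibitor] vs. % activity.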

The target of a further test is LCK (Homo sapiens (Human), UniProt P06239). The test is described as follows: Assay E: LCK biochemical assay (HotSpot Kinase Assay). As to conditions: for inhibition at 1 µM: read-out: LCK % inhibition at 1 uM test concentration (Assay E). As for the experimental part: Assay E: LCK Biochemical Assay
The standard protocol below describes the standard HotSpot Kinase Assay run by the Reaction Biology Corporation as a service.
The substrate (poly(EY) (Glu:Tyr (4:1)) and the cofactors were prepared in fresh Reaction Buffer (20 mM Hepes (pH 7.5), 10 mM MgCl2, 2 mM MnCl2, 1 mM EGTA, 0.02% Brij35, 0.02 mg/ml BSA, 0.1 mM Na3VO4, 2 mM DTT, 2% DMSO). To the substrate solution was then added the enzyme (LCK; recombinant human full-length (Genbank Accession #NP_005347); C-terminal His-tagged, expressed in insect cells), and the resulting solution was then gently mixed. The test compounds were dissolved in DMSO and then delivered into the kinase reaction mixture using acoustic liquid handling technology (Echo550; nanoliter range). The reaction mixture was incubated for 20 min at RT and then treated with ^33P-ATP to initiate the reaction. After 2 hours of incubation at RT, kinase activity was detected using Reaction Biology Corporation's proprietary P81 filter-binding method.

Chain of full-length human BTK (Q06187 whole entry): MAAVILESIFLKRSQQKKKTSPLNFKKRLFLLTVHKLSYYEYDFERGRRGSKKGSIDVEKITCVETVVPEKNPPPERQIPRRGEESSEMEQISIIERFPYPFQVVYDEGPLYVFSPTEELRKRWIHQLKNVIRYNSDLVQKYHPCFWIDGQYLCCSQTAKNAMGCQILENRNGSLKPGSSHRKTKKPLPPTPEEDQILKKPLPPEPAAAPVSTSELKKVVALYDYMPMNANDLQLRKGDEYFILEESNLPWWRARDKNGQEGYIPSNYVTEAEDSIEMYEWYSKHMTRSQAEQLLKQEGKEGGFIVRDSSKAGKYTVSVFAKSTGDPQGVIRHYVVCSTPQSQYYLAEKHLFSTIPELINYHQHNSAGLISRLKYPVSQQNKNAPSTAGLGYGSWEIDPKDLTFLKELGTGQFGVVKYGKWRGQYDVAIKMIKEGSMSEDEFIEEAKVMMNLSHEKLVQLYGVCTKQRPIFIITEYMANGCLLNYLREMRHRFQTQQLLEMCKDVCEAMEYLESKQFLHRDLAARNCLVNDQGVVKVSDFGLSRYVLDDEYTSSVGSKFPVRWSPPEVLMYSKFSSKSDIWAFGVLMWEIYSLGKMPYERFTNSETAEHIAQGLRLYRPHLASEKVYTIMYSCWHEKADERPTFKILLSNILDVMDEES
Chain of LCK (P06239 whole entry): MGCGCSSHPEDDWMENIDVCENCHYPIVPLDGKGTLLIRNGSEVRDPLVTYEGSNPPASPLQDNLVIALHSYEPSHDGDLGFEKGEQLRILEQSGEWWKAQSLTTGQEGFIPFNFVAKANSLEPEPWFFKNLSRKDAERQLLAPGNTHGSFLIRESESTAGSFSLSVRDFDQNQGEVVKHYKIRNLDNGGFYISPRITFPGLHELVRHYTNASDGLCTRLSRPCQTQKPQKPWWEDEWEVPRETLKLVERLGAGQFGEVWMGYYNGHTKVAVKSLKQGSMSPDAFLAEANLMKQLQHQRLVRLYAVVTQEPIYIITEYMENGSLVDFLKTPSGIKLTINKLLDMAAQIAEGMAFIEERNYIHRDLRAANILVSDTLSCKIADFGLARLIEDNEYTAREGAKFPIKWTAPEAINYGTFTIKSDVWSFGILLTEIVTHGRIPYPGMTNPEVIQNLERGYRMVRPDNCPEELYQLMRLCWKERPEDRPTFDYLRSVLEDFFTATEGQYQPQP
Chain of BTK C481S (His-TEV-hsBTK(328-659)(C481S)) (Q06187 328-659 C481S): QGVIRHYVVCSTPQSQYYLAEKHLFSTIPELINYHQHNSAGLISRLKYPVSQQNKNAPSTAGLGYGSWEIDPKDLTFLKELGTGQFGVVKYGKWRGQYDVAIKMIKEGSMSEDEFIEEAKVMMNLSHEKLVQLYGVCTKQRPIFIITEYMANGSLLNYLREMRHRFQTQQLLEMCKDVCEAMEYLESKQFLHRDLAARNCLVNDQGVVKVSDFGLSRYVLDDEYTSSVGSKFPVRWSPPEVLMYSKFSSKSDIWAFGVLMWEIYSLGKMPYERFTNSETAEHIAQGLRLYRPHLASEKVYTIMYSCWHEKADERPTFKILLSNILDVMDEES

In the case of `CN1CC=C(c2ccc(-c3nc4c(-c5cccc(N6CCOc7cc(C8CC8)cc(F)c7C6=O)c5CO)ccnc4[nH]3)cc2)CC1` [Example 3, 8-Cyclopropyl-6-fluoro-4-[2-(hydroxymethyl)-3-[2-[4-(1-methyl-1,2,3,6-tetrahydropyridin-4-yl)phenyl]-3H-imidazo[4,5-b]pyridin-7-yl]phenyl]-2,3,4,5-tetrahydro-1,4-benzoxazepin-5-one], the figures for the IC50 (on full-length human BTK; in test [1]; in test [2]) were below 100 nM, 100 to 1000 nM and 100 to 1000 nM, respectively.

As to `Cc1c(NC(=O)c2ccc(C(C)(C)C)cc2)cccc1-c1ccnc2[nH]c(-c3ccc(C(=O)N4CCOCC4)cc3)nc12` [Example 5, 4-(tert-butyl)-N-(2-methyl-3-(2-(4-(morpholine-4-carbonyl)phenyl)-3H-imidazo[4,5-b]pyridin-7-yl)phenyl)benzamide], the values for the IC50 in test [1] and in test [2] were 1000 to 5000 nM and below 100 nM, respectively.

As to `O=C(c1ccc(-c2nc3c(-c4cccc(N5CCc6cc(C7CC7)ccc6C5=O)c4CO)ccnc3[nH]2)cc1)N1CCOCC1` [Example 6, 6-Cyclopropyl-2-(2-hydroxymethyl-3-{2-[4-(morpholine-4-carbonyl)-phenyl]-3H-imidazo[4,5-b]pyridin-7-yl}-phenyl)-3,4-dihydro-2H-isoquinolin-1-one], the IC50 (as a rule, the point on the concentration scale where inhibition reaches its midpoint) in test [3] is below 100 nM; on full-length human BTK it was below 100 nM; in test [1] it was 1000 to 5000 nM; in test [2], 100 to 1000 nM.

In the case of `Cc1c(NC(=O)c2ccc(C(C)(C)C)cc2)cccc1-c1ccnc2[nH]c(-c3cnn(C)c3)nc12` [Example 9, 4-tert-Butyl-N-{2-methyl-3-[2-(1-methyl-1H-pyrazol-4-yl)-3H-imidazo[4,5-b]pyridin-7-yl]-phenyl}-benzamide], the IC50 in test [1] is 1000 to 5000 nM; in test [2], 100 to 1000 nM.

Regarding `Cn1cc(-c2nc3c(-c4ccc(CNC(=O)N5CC(OC(C)(C)C)C5)c(F)c4)ccnc3[nH]2)cn1` [Example 55, 3-(tert-Butoxy)-N-([2-fluoro-4-[2-(1-methyl-1H-pyrazol-4-yl)-3H-imidazo[4,5-b]pyridin-7-yl]phenyl]methyl)azetidine-1-carboxamide], the IC50 is 100 to 1000 nM in test [1] and 1000 to 5000 nM in test [2].

In the case of `CC1CN(c2ccc(-c3nc4c(-c5ccc(CNC(=O)c6noc(C(C)(C)C)n6)c(F)c5)ccnc4[nH]3)nc2)CC(C)O1` (stereo not shown) [Example 81, 5-tert-Butyl-N-[(4-[2-[5-(2,6-dimethylmorpholin-4-yl)pyridin-2-yl]-3H-imidazo[4,5-b]pyridin-7-yl]-2-fluorophenyl)methyl]-1,2,4-oxadiazole-3-carboxamide], the IC50 (in test [3]; on full-length human BTK; in test [1]) was below 100 nM throughout. In addition, the inhibition at 1 µM on LCK was 15%.

For `CC(C)(C)c1nc(C(=O)NCc2ccc(-c3ccnc4[nH]c(-c5ccc(N6CCC(F)(F)CC6)cn5)nc34)cc2F)no1` [Example 82, 5-tert-Butyl-N-[(4-[2-[5-(4,4-difluoropiperidin-1-yl)pyridin-2-yl]-3H-imidazo[4,5-b]pyridin-7-yl]-2-fluorophenyl)methyl]-1,2,4-oxadiazole-3-carboxamide], the inhibition at 1 µM at LCK turned out to be 7.3%. Moreover, the IC50 (at full-length human BTK; in test [1]) was below 100 nM throughout.

With `CC(C)(C)c1nc(C(=O)NCc2ccc(-c3ccnc4[nH]c(-c5ccc(N6CCC(O)CC6)cn5)nc34)cc2F)no1` [Example 84, 5-tert-butyl-N-[(2-fluoro-4-[2-[5-(4-hydroxypiperidin-1-yl)pyridin-2-yl]-3H-imidazo[4,5-b]pyridin-7-yl]phenyl)methyl]-1,2,4-oxadiazole-3-carboxamide], the IC50 in test [3] was below 100 nM; against LCK, 585 µM; on full-length human BTK, below 100 nM; in test [1], below 100 nM.

Turning to `Cc1ccc(-n2ccn(-c3cccc(-c4ccnc5[nH]c(-c6ccc(C(=O)N7CCOCC7)cc6)nc45)c3C)c2=O)cc1` [Example 95, 1-[2-Methyl-3-(2-[4-[(morpholin-4-yl)carbonyl]phenyl]-3H-imidazo[4,5-b]pyridin-7-yl)phenyl]-3-(4-methylphenyl)-2,3-dihydro-1H-imidazol-2-one], the IC50 in test [3] was 1000 to 5000 nM; on full-length human BTK, 1000 to 5000 nM; in test [2] it was below 100 nM.

As to `CC(C)(O)CCN1Cc2cc(-c3ccnc4[nH]c(-c5ccc(C(=O)N6CCOCC6)cc5)nc34)ccc2C1=O` [Example 114, 2-(3-Hydroxy-3-methyl-butyl)-5-{2-[4-(morpholine-4-carbonyl)-phenyl]-3H-imidazo[4,5-b]pyridin-7-yl}-2,3-dihydro-isoindol-1-one], the IC50 was above 5000 nM in test [3], above 5000 nM on full-length human BTK and 1000 to 5000 nM in test [2].

Regarding `CC(C)(C)c1ccc2c(c1)CCN(Cc1ccc(-c3ccnc4[nH]c(-c5ccc(C(=O)N6CCOCC6)cc5)nc34)cc1)C2=O` [Example 115, 6-tert-Butyl-2-(4-{2-[4-(morpholine-4-carbonyl)-phenyl]-3H-imidazo[4,5-b]pyridin-7-yl}-benzyl)-3,4-dihydro-2H-isoquinolin-1-one], the IC50 was below 100 nM in test [3], below 100 nM at full-length human BTK, 100 to 1000 nM in test [1] and below 100 nM in test [2].

As to `CC(C)(C)c1ccc(C(=O)NCc2ccc(-c3ccnc4[nH]c(-c5ccc(C(=O)N6CCOCC6)cc5)nc34)cc2F)cc1` [Example 118, 4-tert-Butyl-N-(2-fluoro-4-{2-[4-(morpholine-4-carbonyl)-phenyl]-3H-imidazo[4,5-b]pyridin-7-yl}-benzyl)-benzamide], the IC50 (in test [3]; at full-length human BTK; in test [1]; in test [2]) was below 100 nM throughout.

`CC(C)(C)c1nnc(C(=O)NCc2ccc(-c3ccnc4[nH]c(C5=CCOCC5)nc34)cc2F)o1` [Example 138, 5-(tert-butyl)-N-(4-(2-(3,6-dihydro-2H-pyran-4-yl)-3H-imidazo[4,5-b]pyridin-7-yl)-2-fluorobenzyl)-1,3,4-oxadiazole-2-carboxamide]: the inhibition at 1 µM on LCK amounted to 40%. Further, the 50% inhibitory concentration (IC50) on full-length human BTK is below 100 nM; in test [1], 100 to 1000 nM.

For the compound `Cn1cc(-c2nc3c(-c4ccc(CNC(=O)c5cc(C(C)(C)C)no5)c(F)c4)ccnc3[nH]2)cn1` [Example 144, 3-(tert-butyl)-N-(2-fluoro-4-(2-(1-methyl-1H-pyrazol-4-yl)-3H-imidazo[4,5-b]pyridin-7-yl)benzyl)isoxazole-5-carboxamide], the inhibition at 1 µM on LCK was 49%.

`CN(C)c1ccc(-c2nc3c(-c4ccc(CNC(=O)c5noc(C(C)(C)C)n5)c(F)c4)ccnc3[nH]2)nc1` [Example 146, 5-tert-Butyl-[1,2,4]oxadiazole-3-carboxylic acid 4-[2-(5-dimethylamino-pyridin-2-yl)-3H-imidazo[4,5-b]pyridin-7-yl]-2-fluoro-benzylamide]: the inhibition at 1 µM at LCK came out at 11%. Besides, the IC50 is below 100 nM on full-length human BTK and 100 to 1000 nM in test [1].

In the case of `Cc1c(NC(=O)c2ccc(C(C)(C)C)cc2)cccc1-c1ccnc2[nH]c(-c3ccc(C(=O)O)cc3)nc12` [Example 153, 4-{7-[3-(4-tert-Butyl-benzoylamino)-2-methyl-phenyl]-3H-imidazo[4,5-b]pyridin-2-yl}-benzoic acid], the IC50 is below 100 nM in test [3], below 100 nM on full-length human BTK, above 5000 nM in test [1] and 100 to 1000 nM in test [2].
